Test results taken from patent publication US20150125889A1, “IN VITRO DETECTION OF MICROORGANISMS WITH AZOREDUCTASE ACTIVITY” (BIOMÉRIEUX, priority 2012, published 2015).

How the values were obtained:
Test in all cases: Reduction of azo substrates over 24 hours at 35° C., microtitration plate (Example 1)
Assay type in all cases: cell-based
Cronobacter muytjensii = system: Cronobacter muytjensii; parameters: key to RED (substrate reduced or not): RED indicates whether the substrate is reduced (Y) or not (N); RED indicates whether the substrate is reduced (Y) or not (N); key to Co (growth, absorbance at 660 nm) / Decol (substrate decolourized, decrease in absorbance) / Fluo (fluorescence multiplied by 2 relative to substrate-free control): The symbol “+” means good growth/decolourization/significant increase in fluorescence; The symbol “+/−” means difficult growth; The symbol “−” means that there is no growth/decolourization/significant increase in fluorescence; conditions: E. muytjensii, substrate 35 mg/l
Procedure, shortened: (§1)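 Each species is represented by a single strain inoculated at 0.5 McFarland into Trypcase soya broth with substrate at 35 mg/l. Plates are read continuously at 35° C. over 24 hours. A substrate counts as reduced when absorbance falls or fluorescence doubles relative to a substrate-free control.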

Escherichia coli = system: Escherichia coli; parameters: key to RED (substrate reduced or not): RED indicates whether the substrate is reduced (Y) or not (N); RED indicates whether the substrate is reduced (Y) or not (N); key to Co (growth, absorbance at 660 nm) / Decol (substrate decolourized, decrease in absorbance) / Fluo (fluorescence multiplied by 2 relative to substrate-free control): The symbol “+” means good growth/decolourization/significant increase in fluorescence; The symbol “+/−” means difficult growth; The symbol “−” means that there is no growth/decolourization/significant increase in fluorescence; conditions: E. coli, substrate 35 mg/l
Procedure, shortened: as §1

Geotrichum candidum = system: Geotrichum candidum; parameters: key to RED (substrate reduced or not): RED indicates whether the substrate is reduced (Y) or not (N); RED indicates whether the substrate is reduced (Y) or not (N); key to Co (growth, absorbance at 660 nm) / Decol (substrate decolourized, decrease in absorbance) / Fluo (fluorescence multiplied by 2 relative to substrate-free control): The symbol “+” means good growth/decolourization/significant increase in fluorescence; The symbol “+/−” means difficult growth; The symbol “−” means that there is no growth/decolourization/significant increase in fluorescence; conditions: G. candidum, substrate 35 mg/l
Procedure, shortened: as §1

Staphylococcus aureus = system: Staphylococcus aureus; parameters: key to RED (substrate reduced or not): RED indicates whether the substrate is reduced (Y) or not (N); RED indicates whether the substrate is reduced (Y) or not (N); key to Co (growth, absorbance at 660 nm) / Decol (substrate decolourized, decrease in absorbance) / Fluo (fluorescence multiplied by 2 relative to substrate-free control): The symbol “+” means good growth/decolourization/significant increase in fluorescence; The symbol “+/−” means difficult growth; The symbol “−” means that there is no growth/decolourization/significant increase in fluorescence; conditions: S. aureus, substrate 35 mg/l
Procedure, shortened: as §1

[1] = system: Staphylococcus epidermidis; parameters: key to RED (substrate reduced or not): RED indicates whether the substrate is reduced (Y) or not (N); RED indicates whether the substrate is reduced (Y) or not (N); key to Co (growth, absorbance at 660 nm) / Decol (substrate decolourized, decrease in absorbance) / Fluo (fluorescence multiplied by 2 relative to substrate-free control): The symbol “+” means good growth/decolourization/significant increase in fluorescence; The symbol “+/−” means difficult growth; The symbol “−” means that there is no growth/decolourization/significant increase in fluorescence; conditions: S. epidermidis, substrate 35 mg/l
Procedure, shortened: as §1

Acinetobacter baumanii = system: Acinetobacter baumanii; parameters: key to RED (substrate reduced or not): RED indicates whether the substrate is reduced (Y) or not (N); RED indicates whether the substrate is reduced (Y) or not (N); key to Decol (substrate decolourized, decrease in absorbance) / Fluo (fluorescence multiplied by 2 relative to substrate-free control) / Co (growth, absorbance at 660 nm): The symbol “+” means good growth/decolourization/significant increase in fluorescence; The symbol “+/−” means difficult growth; The symbol “−” means that there is no growth/decolourization/significant increase in fluorescence; conditions: A. baumannii, substrate 35 mg/l
Procedure, shortened: as §1

Enterococcus faecalis = system: Enterococcus faecalis; parameters: key to RED (substrate reduced or not): RED indicates whether the substrate is reduced (Y) or not (N); RED indicates whether the substrate is reduced (Y) or not (N); key to Decol (substrate decolourized, decrease in absorbance) / Fluo (fluorescence multiplied by 2 relative to substrate-free control) / Co (growth, absorbance at 660 nm): The symbol “+” means good growth/decolourization/significant increase in fluorescence; The symbol “+/−” means difficult growth; The symbol “−” means that there is no growth/decolourization/significant increase in fluorescence; conditions: E. faecalis, substrate 35 mg/l
Procedure, shortened: as §1

Structure (SMILES)	Co (growth, absorbance at 660 nm) (Cronobacter muytjensii)	Decol (substrate decolourized, decrease in absorbance) (Cronobacter muytjensii)	Fluo (fluorescence multiplied by 2 relative to substrate-free control) (Cronobacter muytjensii)	RED (substrate reduced or not) (Cronobacter muytjensii)	Co (growth, absorbance at 660 nm) (Escherichia coli)	Decol (substrate decolourized, decrease in absorbance) (Escherichia coli)	Fluo (fluorescence multiplied by 2 relative to substrate-free control) (Escherichia coli)	RED (substrate reduced or not) (Escherichia coli)	Co (growth, absorbance at 660 nm) (Geotrichum candidum)	Decol (substrate decolourized, decrease in absorbance) (Geotrichum candidum)	Fluo (fluorescence multiplied by 2 relative to substrate-free control) (Geotrichum candidum)	RED (substrate reduced or not) (Geotrichum candidum)	Co (growth, absorbance at 660 nm) (Staphylococcus aureus)	Decol (substrate decolourized, decrease in absorbance) (Staphylococcus aureus)	Fluo (fluorescence multiplied by 2 relative to substrate-free control) (Staphylococcus aureus)	RED (substrate reduced or not) (Staphylococcus aureus)	Co (growth, absorbance at 660 nm) [1]	Decol (substrate decolourized, decrease in absorbance) [1]	Fluo (fluorescence multiplied by 2 relative to substrate-free control) [1]	RED (substrate reduced or not) [1]	also measured
CN(C)c1ccc(/N=N/c2ccccc2C(=O)O)cc1 [Methyl red]	+	+	+	Y	+	+	+	Y	+/−	+/−	+	Y	+	+	+	Y	+	+	+	Y	Co (growth, absorbance at 660 nm) (Acinetobacter baumanii): +; Decol (substrate decolourized, decrease in absorbance) (Acinetobacter baumanii): +; Fluo (fluorescence multiplied by 2 relative to substrate-free control) (Acinetobacter baumanii): +; RED (substrate reduced or not) (Acinetobacter baumanii): Y; Co (growth, absorbance at 660 nm) (Enterococcus faecalis): +; Decol (substrate decolourized, decrease in absorbance) (Enterococcus faecalis): +; Fluo (fluorescence multiplied by 2 relative to substrate-free control) (Enterococcus faecalis): +; RED (substrate reduced or not) (Enterococcus faecalis): Y
O=C([O-])C1=NN(c2ccc(S(=O)(=O)[O-])cc2)C(=O)C1/N=N/c1ccc(S(=O)(=O)[O-])cc1.[Na+].[Na+].[Na+] (centres unmarked) [Tartrazine]	+	−	−	N	+	−	−	N	+/−	−	−	N	+	−	−	N	+	−	−	N	Co (growth, absorbance at 660 nm) (Acinetobacter baumanii): +; Decol (substrate decolourized, decrease in absorbance) (Acinetobacter baumanii): −; Fluo (fluorescence multiplied by 2 relative to substrate-free control) (Acinetobacter baumanii): −; RED (substrate reduced or not) (Acinetobacter baumanii): N; Co (growth, absorbance at 660 nm) (Enterococcus faecalis): +; Decol (substrate decolourized, decrease in absorbance) (Enterococcus faecalis): +; Fluo (fluorescence multiplied by 2 relative to substrate-free control) (Enterococcus faecalis): +/−; RED (substrate reduced or not) (Enterococcus faecalis): Y
CN(C)c1ccc(N=Nc2ccc(S(=O)(=O)[O-])cc2)cc1.[Na+] [Methyl orange]	+	−	−	N	+	−	−	N	+	−	−	N	+	−	−	N	+	−	−	N	Co (growth, absorbance at 660 nm) (Acinetobacter baumanii): +; Decol (substrate decolourized, decrease in absorbance) (Acinetobacter baumanii): −; Fluo (fluorescence multiplied by 2 relative to substrate-free control) (Acinetobacter baumanii): −; RED (substrate reduced or not) (Acinetobacter baumanii): N; Co (growth, absorbance at 660 nm) (Enterococcus faecalis): +; Decol (substrate decolourized, decrease in absorbance) (Enterococcus faecalis): +; Fluo (fluorescence multiplied by 2 relative to substrate-free control) (Enterococcus faecalis): +; RED (substrate reduced or not) (Enterococcus faecalis): Y
O=C(O)c1cc(/N=N/c2ccc(-c3nc4ccccc4s3)cc2)ccc1O [BF45, 2-Phenyl-benzothiazole-4′-azo-4″- hydroxybenzene-3″-carboxylic acid]	+	−	−	N	+	−	+	Y	+	−	−	N	+	+	+	Y	+	−	+	Y	Co (growth, absorbance at 660 nm) (Acinetobacter baumanii): +; Decol (substrate decolourized, decrease in absorbance) (Acinetobacter baumanii): −; Fluo (fluorescence multiplied by 2 relative to substrate-free control) (Acinetobacter baumanii): +; RED (substrate reduced or not) (Acinetobacter baumanii): Y; Co (growth, absorbance at 660 nm) (Enterococcus faecalis): +; Decol (substrate decolourized, decrease in absorbance) (Enterococcus faecalis): +; Fluo (fluorescence multiplied by 2 relative to substrate-free control) (Enterococcus faecalis): +; RED (substrate reduced or not) (Enterococcus faecalis): Y
O=S(=O)([O-])c1ccc(N=Nc2c(O)ccc3ccccc23)cc1.[Na+] [Orange II]	+	−	−	N	+	−	−	N	+/−	−	−	N	+	−	−	N	+	−	−	N	Co (growth, absorbance at 660 nm) (Acinetobacter baumanii): +; Decol (substrate decolourized, decrease in absorbance) (Acinetobacter baumanii): −; Fluo (fluorescence multiplied by 2 relative to substrate-free control) (Acinetobacter baumanii): −; RED (substrate reduced or not) (Acinetobacter baumanii): N; Co (growth, absorbance at 660 nm) (Enterococcus faecalis): +; Decol (substrate decolourized, decrease in absorbance) (Enterococcus faecalis): +; Fluo (fluorescence multiplied by 2 relative to substrate-free control) (Enterococcus faecalis): +; RED (substrate reduced or not) (Enterococcus faecalis): Y
